Measurements from patent US8871767B2, “2-arylimidazo[1,2-B]pyridazine, 2-phenylimidazo[1,2-A]pyridine, and 2-phenylimidazo[1,2-A]pyrazine derivatives” (Hengrui (USA) Ltd., priority 2010, dated 2014).
Where two headings read alike, the source gives them in different places.

Columns and labels:
[1] = test system: Hedgehog pathway activation on 10T1/2/Smo#3 cells (C3H10T1/2 cells transfected with human Smoothened receptor); test: Hedgehog pathway activation on 10T1/2/Smo#3 cells measured by ALP activity; type: cell-based; conditions: Mus musculus, C3H 10T1/2, 10T1/2/Smo#3 cells
Summary of the method: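 Inhibition of alkaline phosphatase induction, read fluorometrically from 4-methylumbelliferyl phosphate conversion, gave IC50 values; CellTiter-Blue tracked viability in parallel. Cells were the human Smo-transfected 10T1/2/Smo#3 pool, stimulated by 10-20% hShh conditioned medium or the Smo agonist SAG (500 nM).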

[2] = test system: Hedgehog pathway activation (GLi-luciferase reporter) in Shh Light II reporter cells; test: Hedgehog pathway activation on Shh Light II reporter cells measured by luciferase activity; type: cell-based; conditions: Mus musculus, Shh Light II
Summary of the method: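 Shh Light II reporter cells carrying a hedgehog-responsive GLi-luciferase reporter were stimulated either with 500 nM SAG, a direct Smoothened agonist, or with conditioned media containing human Sonic Hedgehog (hShh). Test compounds were evaluated for blocking this pathway activation, quantified by luciferase activity. Cell viability was monitored in parallel with the Celltiter-Blue® assay.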

[3] = measured by ALP activity, read-out: ALP (IC50, inhibition of Hedgehog pathway activation)
[4] = hShh activation, read-out: Shh (IC50, inhibition of Hedgehog pathway activation)
[5] = hShh activation, ALP activity, read-out: 10T1/2/Smo#3 ALP activity (hShh Activation)
[6] = SAG activation (500 nM SAG), read-out: Shh Light II luciferase activity (SAG activation)
[7] = hShh activation, read-out: Shh Light II luciferase activity (hShh activation)

| IC50 [1, 3] | IC50 [2, 4] | IC50 [1, 5] | IC50 [2, 6] | IC50 [2, 7] | SMILES |
| --- | --- | --- | --- | --- | --- |
| 321 nM | 118 nM | – | – | – | COCCNC1CCN(c2ccc3nc(-c4ccc(C(F)(F)F)c(NC(=O)C(C)(C)C)c4)cn3n2)CC1 [Example 368, N-(5-(6-(4-(2-methoxyethylamino)piperidin-1-yl)imidazo[1,2-b]pyridazin-2-yl)-2-(trifluoromethyl)phenyl)pivalamide] |
| 363 nM | 713 nM | 300 to 3000 nM | 300 to 3000 nM | 300 to 3000 nM | CC(C)(C)C(=O)Nc1cc(-c2cn3nc(N4CCC(N5CCOCC5)CC4)ccc3n2)ccc1C(F)(F)F [Example 369, N-(5-(6-(4-morpholinopiperidin-1-yl)imidazo[1,2-b]pyridazin-2-yl)-2-(trifluoromethyl)phenyl)pivalamide] |
| 333 nM | 321 nM | – | – | – | CC1CN(C2CCN(c3ccc4nc(-c5ccc(C(F)(F)F)c(NC(=O)C(C)(C)C)c5)cn4n3)CC2)CC(C)O1 (stereo not drawn) [Example 370, N-(5-(6-(4-(2,6-dimethylmorpholino)piperidin-1-yl)imidazo[1,2-b]pyridazin-2-yl)-2-(trifluoromethyl)phenyl)pivalamide] |
| 296 nM | 138 nM | – | – | – | CC(C)(C)C(=O)Nc1cc(-c2cn3nc(N4CCC5(CC4)OCCO5)ccc3n2)ccc1C(F)(F)F [Example 371, N-(5-(6-(1,4-dioxa-8-azaspiro[4.5]decan-8-yl)imidazo[1,2-b]pyridazin-2-yl)-2-(trifluoromethyl)phenyl)pivalamide] |
| 633 nM | 827 nM | – | – | – | CC(C)(C)C(=O)Nc1cc(-c2cn3nc(-c4cncnc4)ccc3n2)ccc1C(F)(F)F [Example 372, N-(5-(6-(pyrimidin-5-yl)imidazo[1,2-b]pyridazin-2-yl)-2-(trifluoromethyl)phenyl)pivalamide] |
| 533 nM | 929 nM | – | – | – | COc1ncc(-c2ccc3nc(-c4ccc(C(F)(F)F)c(NC(=O)C(C)(C)C)c4)cn3n2)cn1 [Example 373, N-(5-(6-(2-methoxypyrimidin-5-yl)imidazo[1,2-b]pyridazin-2-yl)-2-(trifluoromethyl)phenyl)pivalamide] |
| 1280 nM | 634 nM | – | – | – | CC(C)OCCOc1ccc2nc(-c3ccc(C(F)(F)F)c(NC(=O)C(C)(C)C)c3)cn2n1 [Example 374, N-(5-(6-(2-isopropoxyethoxy)imidazo[1,2-b]pyridazin-2-yl)-2-(trifluoromethyl)phenyl)pivalamide] |
| 372 nM | 316 nM | – | – | – | CC(C)(C)C(=O)Nc1cc(-c2cn3nc(OC4CCC(O)CC4)ccc3n2)ccc1C(F)(F)F (stereo not drawn) [Example 375, N-(5-(6-(4-hydroxycyclohexyloxy)imidazo[1,2-b]pyridazin-2-yl)-2-(trifluoromethyl)phenyl)pivalamide] |
| 874 nM | 616 nM | – | – | – | CC(O)COc1ccc2nc(-c3ccc(C(F)(F)F)c(NC(=O)C(C)(C)C)c3)cn2n1 (stereo not drawn) [Example 376, N-(5-(6-(2-hydroxypropoxy)imidazo[1,2-b]pyridazin-2-yl)-2-(trifluoromethyl)phenyl)pivalamide] |
| 704 nM | 657 nM | – | – | – | CC(C)(C)C(=O)Nc1cc(-c2cn3nc(OCCO)ccc3n2)ccc1C(F)(F)F [Example 377, N-(5-(6-(2-hydroxyethoxy)imidazo[1,2-b]pyridazin-2-yl)-2-(trifluoromethyl)phenyl)pivalamide] |
| 963 nM | 1540 nM | – | – | – | CN(C)c1ncc(-c2ccc3nc(-c4ccc(C(F)(F)F)c(NC(=O)C(C)(C)C)c4)cn3n2)cn1 [Example 378, N-(5-(6-(2-(dimethylamino)pyrimidin-5-yl)imidazo[1,2-b]pyridazin-2-yl)-2-(trifluoromethyl)phenyl)pivalamide] |
| 1860 nM | > 10000 nM | – | – | – | Cn1cccc1-c1ccc2nc(-c3ccc(C(F)(F)F)c(NC(=O)C(C)(C)C)c3)cn2n1 [Example 379, N-(5-(6-(1-methyl-1H-pyrrol-2-yl)imidazo[1,2-b]pyridazin-2-yl)-2-(trifluoromethyl)phenyl)pivalamide] |
| 383 nM | 273 nM | – | – | – | COCCN(CCOC)c1ccc2nc(-c3ccc(C(F)(F)F)c(NC(=O)C(C)(C)C)c3)cn2n1 [Example 380, N-(5-(6-(bis(2-methoxyethyl)amino)imidazo[1,2-b]pyridazin-2-yl)-2-(trifluoromethyl)phenyl)pivalamide] |
| 580 nM | 1250 nM | – | – | – | Cc1cc(-c2ccc3nc(-c4ccc(C(F)(F)F)c(NC(=O)C(C)(C)C)c4)cn3n2)ccn1 [Example 381, N-(5-(6-(2-methylpyridin-4-yl)imidazo[1,2-b]pyridazin-2-yl)-2-(trifluoromethyl)phenyl)pivalamide] |
| 536 nM | 1220 nM | – | – | – | COc1cnccc1-c1ccc2nc(-c3ccc(C(F)(F)F)c(NC(=O)C(C)(C)C)c3)cn2n1 [Example 382, N-(5-(6-(3-methoxypyridin-4-yl)imidazo[1,2-b]pyridazin-2-yl)-2-(trifluoromethyl)phenyl)pivalamide] |
| 141 nM | 193 nM | – | – | – | Cc1ccncc1-c1ccc2nc(-c3ccc(C(F)(F)F)c(NC(=O)C(C)(C)C)c3)cn2n1 [Example 383, N-(5-(6-(4-methylpyridin-3-yl)imidazo[1,2-b]pyridazin-2-yl)-2-(trifluoromethyl)phenyl)pivalamide] |
| 227 nM | 689 nM | – | – | – | COc1ccncc1-c1ccc2nc(-c3ccc(C(F)(F)F)c(NC(=O)C(C)(C)C)c3)cn2n1 [Example 384, N-(5-(6-(4-methoxypyridin-3-yl)imidazo[1,2-b]pyridazin-2-yl)-2-(trifluoromethyl)phenyl)pivalamide] |
| 1380 nM | 778 nM | 300 to 3000 nM | 300 to 3000 nM | 300 to 3000 nM | CC(C)(C)C(=O)Nc1cc(-c2cn3nc(-c4cncc5ccccc45)ccc3n2)ccc1C(F)(F)F [Example 385, N-(5-(6-(isoquinolin-4-yl)imidazo[1,2-b]pyridazin-2-yl)-2-(trifluoromethyl)phenyl)pivalamide] |
| 1710 nM | 3090 nM | – | – | – | CC(C)(C)C(=O)Nc1cc(-c2cn3nc(-c4cnccc4Cl)ccc3n2)ccc1C(F)(F)F [Example 386, N-(5-(6-(4-chloropyridin-3-yl)imidazo[1,2-b]pyridazin-2-yl)-2-(trifluoromethyl)phenyl)pivalamide] |
| 469 nM | 270 nM | 300 to 3000 nM | 300 to 3000 nM | < 300 nM | Cc1ncc(-c2cn3nc(-c4ccccc4F)ccc3n2)cc1NC(=O)C(C)(C)C [Example 390, N-(5-(6-(2-fluorophenyl)imidazo[1,2-b]pyridazin-2-yl)-2-methylpyridin-3-yl)pivalamide] |
| 123 nM | 57 nM | < 300 nM | 300 to 3000 nM | < 300 nM | CN[C@@H]1CCN(c2ccc3nc(-c4ccc(C)c(NC(=O)C(C)(C)C)c4)cn3n2)C1 [Example 391, (R)-N-(2-methyl-5-(6-(3-(methylamino)pyrrolidin-1-yl)imidazo[1,2-b]pyridazin-2-yl)phenyl)pivalamide] |
| 93 nM | 77 nM | – | – | – | CN[C@H]1CCN(c2ccc3nc(-c4ccc(C)c(NC(=O)C(C)(C)C)c4)cn3n2)C1 [Example 392, (S)-N-(2-methyl-5-(6-(3-(methylamino)pyrrolidin-1-yl)imidazo[1,2-b]pyridazin-2-yl)phenyl)pivalamide] |
| 34 nM | 31 nM | < 300 nM | 300 to 3000 nM | < 300 nM | CCN[C@@H]1CCN(c2ccc3nc(-c4ccc(C)c(NC(=O)C(C)(C)C)c4)cn3n2)C1 [Example 393, (R)-N-(5-(6-(3-(ethylamino)pyrrolidin-1-yl)imidazo[1,2-b]pyridazin-2-yl)-2-methylphenyl)pivalamide] |
| 189 nM | 41 nM | – | – | – | CCN[C@H]1CCN(c2ccc3nc(-c4ccc(C)c(NC(=O)C(C)(C)C)c4)cn3n2)C1 [Example 394, (S)-N-(5-(6-(3-(ethylamino)pyrrolidin-1-yl)imidazo[1,2-b]pyridazin-2-yl)-2-methylphenyl)pivalamide] |
| 87 nM | 15 nM | – | – | – | Cc1ccc(-c2cn3nc(-c4cccc(F)c4C(F)(F)F)ccc3n2)cc1NC(=O)C(C)(C)C [Example 395, N-(5-(6-(3-fluoro-2-(trifluoromethyl)phenyl)imidazo[1,2-b]pyridazin-2-yl)-2-methylphenyl)pivalamide] |
| 82 nM | 31 nM | – | – | – | Cc1ccc(-c2cn3nc(-c4ccc(F)cc4C(F)(F)F)ccc3n2)cc1NC(=O)C(C)(C)C [Example 396, N-(5-(6-(4-fluoro-2-(trifluoromethyl)phenyl)imidazo[1,2-b]pyridazin-2-yl)-2-methylphenyl)pivalamide] |
| 315 nM | 73 nM | < 300 nM | < 300 nM | < 300 nM | Cc1ccc(-c2cn3nc(-c4c(F)cccc4C(F)(F)F)ccc3n2)cc1NC(=O)C(C)(C)C [Example 397, N-(5-(6-(2-fluoro-6-(trifluoromethyl)phenyl)imidazo[1,2-b]pyridazin-2-yl)-2-methylphenyl)pivalamide] |
